Measured values taken from PMC7529893, “Structural basis for substrate recognition and chemical inhibition of oncogenic MAGE ubiquitin ligases” (Nature Communications, 2020).

target: T1, MAGE-A11:PCF11 interaction (GST-MAGE-A11 and FAM-PCF11_4) (Homo sapiens, UniProt P43364); assay: TR-FRET primary / single point screen at 15 µM; assay type: binding; details: single point TR-FRET screening of 797 quinoline compounds against MAGE-A11:PCF11
T1 construct: GST-MAGE-A11 MHD (human MAGE-A11 MHD amino acid 218-429); made in house; host or cells: E. coli BL21(DE3)
T1 sequence (P43364 218-429): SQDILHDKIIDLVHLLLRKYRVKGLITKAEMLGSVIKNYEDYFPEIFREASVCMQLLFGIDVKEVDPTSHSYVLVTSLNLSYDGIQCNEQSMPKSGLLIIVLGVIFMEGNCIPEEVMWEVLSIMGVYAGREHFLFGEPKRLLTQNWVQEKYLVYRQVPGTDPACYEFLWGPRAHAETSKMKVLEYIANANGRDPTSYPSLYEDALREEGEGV
Procedure, shortened: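 Single-point screen at 15 µM final compound in 50 mM Tris pH 7.5, 20 mM MgCl2, 0.1 mg/ml BSA, 1 mM DTT, with 200 nM FAM-PCF11_4, 5 nM Tb-anti-GST and 5 nM GST-MAGE-A11. After 90 min at room temperature, the 520/490 nm TR-FRET ratio (340 nm excitation) gave %Inhibition against no-MAGE-A11 and DMSO controls.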

Row | Structure (SMILES) | percent inhibition (TR-FRET)
1 | CCCN(CCCCNc1ccnc2cc(Cl)ccc12)Cc1ccoc1 [SJ000311200] | 12.3053
2 | Cc1ccc(C)c(N2CCN(c3c(S(=O)(=O)c4ccccc4)cnc4ccc(F)cc34)CC2)c1 [SJ000117083] | -15.3776
3 | CCN1CCN(c2c(S(=O)(=O)c3ccc(Cl)cc3)cnc3cc(OC)c(OC)cc23)CC1 [SJ000083970] | -6.809
4 | CCCCCCN1CCC(Nc2ccnc3cc(Cl)ccc23)CC1 [SJ000523108] | 29.2961
5 | CCOC(=O)c1cnc2ccc(Cl)cc2c1N1CCN(C)CC1 [SJ000187322] | -0.9277
6 | CCOC(=O)c1cnc2c(Cl)cc(Cl)cc2c1NCCN1CCOCC1 [SJ000175864] | -13.059
7 | CN(C)c1ccc(CN2CCC(Nc3ccnc4cc(Cl)ccc34)CC2)cc1 [SJ000523102] | 13.0905
8 | COc1ccc2nc3cc(Cl)ccc3c(NCCCNCc3ccco3)c2c1 [SJ000523032] | -165.325
9 | O=S(=O)(c1ccccc1)c1cnc2ccc(F)cc2c1N1CCN(c2ccc(F)cc2)CC1 [SJ000083980] | -11.08
10 | COc1ccc2ncc(C(=O)c3ccccc3)c(N3CCN(C)CC3)c2c1 [SJ000247245] | -2.393
11 | Fc1cccc(CN2CCC(Nc3ccnc4cc(Cl)ccc34)CC2)c1 [SJ000523092] | 6.622
12 | COc1ccc2nc3cc(Cl)ccc3c(NCCCNCc3cccc(C(F)(F)F)c3)c2c1 [SJ000520990] | -408.139
13 | COc1ccc2nc3cc(Cl)ccc3c(NCCCNCc3ccc(Br)o3)c2c1 [SJ000523030] | -219.419
14 | FC(F)(F)c1ccccc1CN(CCCCNc1ccnc2cc(Cl)ccc12)Cc1ccccc1 [SJ000361192] | 27.8155
15 | Clc1ccc2c(NCCCCN(Cc3ccccc3)Cc3cccnc3Br)ccnc2c1 [SJ000520453] | 2.377
16 | CCc1nc2ccccc2c(NC(=O)CN2CCCCC2)c1C [SJ000111682] | 1.593
17 | CCCN(CCCNc1c2ccc(Cl)cc2nc2ccc(OC)cc12)CCOCc1ccccc1 [SJ000522981] | -212.396
18 | CCCCCCN(CCC)CCCNc1c2ccc(Cl)cc2nc2ccc(OC)cc12 [SJ000520963] | -153.702
19 | COc1ccccc1N1CCN(c2c(S(=O)(=O)c3ccc(C)cc3)cnc3ccc(C)cc23)CC1 [SJ000117066] | -92.8867
20 | CCCN(CCCCNc1ccnc2cc(Cl)ccc12)Cc1ccc[nH]1 [SJ000311198] | -0.9977
21 | O=[N+]([O-])c1cccc(CN(CCCCNc2ccnc3cc(Cl)ccc23)Cc2ccccc2)c1 [SJ000361201] | 24.3707
22 | CCCCCN(CCCCC)CC(=O)Nc1c2c(nc3ccccc13)CCC2 [SJ000487033] | -68.0728
23 | CCN1CCN(c2c(S(=O)(=O)c3ccc(C)cc3)cnc3ccc(C)cc23)CC1 [SJ000083961] | 0.2213
24 | Clc1ccc(CN(CCCCNc2ccnc3cc(Cl)ccc23)Cc2ccccc2)c(Cl)c1 [SJ000361207] | 35.4339

same assay, conditions: single point TR-FRET screening of quinoline compounds against MAGE-A11:PCF11; 15 µM

Row | Structure (SMILES) | percent inhibition (TR-FRET)
25 | CCCN(CCCNc1ccnc2cc(Cl)ccc12)Cc1ccc2ccccc2c1 [SJ000523040] | 32.8503
26 | CCCN(CCCNc1ccnc2cc(C(F)(F)F)ccc12)Cc1cccc(F)c1 [SJ000521008] | 27.8488
27 | FC(F)(F)c1cccc(Cc2ccc3c(NCCCNCc4ccco4)ccnc3c2)c1 [SJ000311298] | 27.0086
28 | CCCN(CCCNc1ccnc2cc(C(F)(F)F)ccc12)Cc1c[nH]c2ccccc12 [SJ000520468] | 16.1561
29 | CCCN(CCCNc1ccnc2cc(Cl)ccc12)Cc1cccc(F)c1 [SJ000522758] | 27.418
30 | CCCN(CCCNc1ccnc2cc(C(F)(F)F)ccc12)Cc1ccc(Cl)c(C(F)(F)F)c1 [SJ000521015] | 11.045
31 | CCCN(CCCNc1ccnc2cc(Cl)ccc12)Cc1cnn(C)c1 [SJ000523009] | 10.0613
32 | CCCN(CCCNc1c2ccc(Cl)cc2nc2ccc(OC)cc12)Cc1ccc(Br)s1 [SJ000520924] | -56.4502
33 | CCCN(CCCNc1c2ccc(Cl)cc2nc2ccc(OC)cc12)Cc1cc(Br)cs1 [SJ000522989] | -56.7027
34 | CCCN(CCCNc1c2ccc(Cl)cc2nc2ccc(OC)cc12)Cc1ccc(Cl)c([N+](=O)[O-])c1 [SJ000522738] | -71.0252
35 | COc1ccc(O)c(CN(CCCNc2ccnc3cc(Cl)ccc23)Cc2ccccc2)c1 [SJ000357463] | 14.1686
36 | Clc1ccc2c(NCCCN(CCc3ccccc3)Cc3ccccc3)ccnc2c1 [SJ000357580] | 14.4057
37 | CC(C)CCc1ccc2c(NCCCNCc3ccco3)ccnc2c1 [SJ000311246] | 13.0054
38 | Clc1ccc2c(NCCCN(Cc3ccccc3)Cc3c[nH]c4ccccc34)ccnc2c1 [SJ000520433] | 40.1907
39 | CCCN(CCCNc1ccnc2cc(Cl)ccc12)CC1CCOC1 (stereo not drawn) [SJ000523016] | 9.6638
40 | Clc1ccc2c(NCCCN(Cc3ccccc3)Cc3ccncc3)ccnc2c1 [SJ000312679] | -5.573
41 | c1coc(CNCCCNc2ccnc3cc(CC4CCCCC4)ccc23)c1 [SJ000311250] | 40.6616

Row | Structure (SMILES) | percent inhibition (TR-FRET)
42 | COc1ccccc1Oc1ccc2c(NCCCNCc3ccco3)ccnc2c1 [SJ000311210] | 24.558
43 | CCc1ccc(CN(CCCNc2ccnc3cc(Cl)ccc23)Cc2ccccc2)cc1 [SJ000520442] | 18.8867
44 | Clc1ccc2c(NCCCN(Cc3ccccc3)CC3CC=CCC3)ccnc2c1 (stereo not drawn) [SJ000311182] | 16.0865
45 | CCCN(CCCNc1ccnc2cc(C(F)(F)F)ccc12)Cc1ccccc1OC [SJ000523072] | 32.6098
46 | CCCN(CCCNc1ccnc2cc(Cl)ccc12)Cc1cc2ccccc2s1 [SJ000522993] | 5.864
47 | COc1ccc2nc3cc(Cl)ccc3c(NCCCNCc3cccc(C)c3)c2c1 [SJ000522956] | -7.0891
48 | Clc1ccc2c(NCCCNCc3nccs3)ccnc2c1 [SJ000521023] | 4.988
49 | Fc1ccc(Oc2ccc3c(NCCCNCc4ccco4)ccnc3c2)cc1 [SJ000311222] | 9.365
50 | Clc1ccc(Oc2ccc3c(NCCCNCc4ccco4)ccnc3c2)cc1 [SJ000311226] | 37.651
51 | CCCN(CCCNc1ccnc2cc(Cl)ccc12)Cc1cc2ccccc2nc1Cl [SJ000522760] | 12.7954
52 | CCCN(CCCNc1ccnc2cc(C(F)(F)F)ccc12)CC1CCCCC1 [SJ000361268] | 33.314
53 | CCCN(CCCNc1ccnc2cc(C(F)(F)F)ccc12)Cc1ccncc1 [SJ000361251] | 17.4864
54 | CCCN(CCCNc1c2ccc(Cl)cc2nc2ccc(OC)cc12)Cc1ccc(F)c(F)c1 [SJ000520942] | 0.9703
55 | Clc1ccc2c(NCCCN(Cc3ccccc3)Cc3cccc4c3OCO4)ccnc2c1 [SJ000357598] | 3.49
56 | CCCN(CCCNc1ccnc2cc(C(F)(F)F)ccc12)Cc1cc2ccccc2s1 [SJ000520482] | 13.0054
57 | CCCN(CCCNc1ccnc2cc(Cl)ccc12)Cc1cccnc1 [SJ000357446] | 7.809
